Read-outs that look alike come from different tables or passages of the source.
Experiments:
[1] = Cytotoxicity (CellTiter 96 AQueous); type: cell-based; conditions: human
[2] = biological target: IN-GCN2 interaction (6xHis-IN / GST-GCN2) (UniProt P04585+Q9P2K8); assay: biochemical; type: binding, HIV-1 IN; human GCN2; conditions: for IC50: SAR study, fresh dilutions from powder, at least three independent experiments; for IN-GCN2 interaction (%): single dose 100 µM, single replicate, residual AlphaLISA signal normalized to DMSO control
IN-GCN2 interaction (6xHis-IN / GST-GCN2), sequence (Q9P2K8 192-1024, other chains not shown): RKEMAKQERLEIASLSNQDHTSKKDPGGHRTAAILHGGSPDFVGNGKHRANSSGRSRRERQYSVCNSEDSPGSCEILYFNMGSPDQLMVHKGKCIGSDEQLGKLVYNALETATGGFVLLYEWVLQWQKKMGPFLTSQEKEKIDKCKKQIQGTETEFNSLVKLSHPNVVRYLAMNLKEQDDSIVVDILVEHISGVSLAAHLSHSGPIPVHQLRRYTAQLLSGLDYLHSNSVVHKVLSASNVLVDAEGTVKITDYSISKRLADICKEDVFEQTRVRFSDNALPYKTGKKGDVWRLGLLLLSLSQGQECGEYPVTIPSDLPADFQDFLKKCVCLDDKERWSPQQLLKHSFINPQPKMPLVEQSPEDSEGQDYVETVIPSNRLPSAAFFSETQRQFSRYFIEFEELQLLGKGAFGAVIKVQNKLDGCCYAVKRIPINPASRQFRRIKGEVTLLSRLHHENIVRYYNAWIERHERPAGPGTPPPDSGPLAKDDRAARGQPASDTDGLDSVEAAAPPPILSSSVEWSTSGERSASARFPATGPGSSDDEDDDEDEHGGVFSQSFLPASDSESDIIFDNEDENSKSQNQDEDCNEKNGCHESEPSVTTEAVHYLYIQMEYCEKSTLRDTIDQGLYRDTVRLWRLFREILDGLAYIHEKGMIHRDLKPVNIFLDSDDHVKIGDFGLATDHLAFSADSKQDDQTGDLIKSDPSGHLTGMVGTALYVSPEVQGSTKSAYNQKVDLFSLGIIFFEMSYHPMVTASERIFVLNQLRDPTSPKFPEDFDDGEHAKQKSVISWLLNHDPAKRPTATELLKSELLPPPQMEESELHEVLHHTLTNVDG

HIV-1Laï = assay: microbe, parasite or virus in culture; type: cell-based; conditions: dose-dependent increase (pro-viral effect)
[3] = IC50, inhibition of IN-GCN2 interaction
[4] = P4 MAGI CCR5+ cells, 24 h, read-out: CC50

CCC1(O)CC(OC2CC(N)C(O)C(C)O2)c2c(O)c3c(c(O)c2C1C(=O)OC)C(=O)c1cccc(O)c1C3=O (stereo not shown) [Compound 1b]
CC50 ([1]; 24 h, read-out: CC50): > 5 µM | IC50 [2, 3]: 0.917 µM

CCC1(O)CC(OC2CC(N(C)C)C(O)C(C)O2)c2c(cc3c(c2O)C(=O)c2c(O)ccc(O)c2C3=O)C1C(=O)OC (stereo not shown) [Compound 1c]
CC50 ([1]; 24 h, read-out: CC50): 0.589 µM | IC50 [2, 3]: 1.4 µM

CC(=O)[C@]1(O)Cc2c(O)c3c(c(O)c2[C@@H](O[C@H]2C[C@H](N)[C@H](O)[C@H](C)O2)C1)C(=O)c1c(O)cccc1C3=O [Compound 1d]
CC50 [1]: 0.04 µM

CCC1(O)CC(OC2CC(N(C)C)C(O)C(C)O2)c2c(O)c3c(c(O)c2C1OC1CC(N(C)C)C(O)C(C)O1)C(=O)c1cccc(O)c1C3=O (stereo not shown) [Compound 1e]
CC50 ([1]; 24 h, read-out: CC50): 0.724 µM | IN-GCN2 interaction (%) ([2]; screen): 17.07%

COC(=O)[C@@H]1c2cc3c(c(O)c2[C@@H](O[C@@H]2O[C@@H](C)[C@H](OC)[C@@](C)(OC)[C@H]2OC)C[C@]1(C)O)C(=O)c1c(O)cc2c(c1C3=O)O[C@@H]1O[C@@]2(C)[C@H](O)[C@@H](N(C)C)[C@@H]1O [Compound 1j]
CC50 at 24 h [1]: 0.311 µM | IC50 [2, 3]: 8.88 µM

CC[C@@]1(O)C[C@H](O[C@H]2C[C@H](N(C)C)[C@H](O[C@H]3C[C@H](O)[C@H](O[C@H]4CCC(=O)[C@H](C)O4)[C@H](C)O3)[C@H](C)O2)c2c(cc3c(c2O)C(=O)c2c(O)cccc2C3=O)[C@H]1C(=O)OC [Compound 1k]
CC50 ([1]; 24 h, read-out: CC50): 0.114 µM | IN-GCN2 interaction (%) ([2]; screen): 28.46%

CCCCCCCCCCCCCCCCCC(=O)OCC(=O)OCC(=O)C1(O)Cc2c(O)c3c(c(O)c2C(OC2CC(N)C(O)C(C)O2)C1)C(=O)c1c(OC)cccc1C3=O (stereo not shown) [Compound 1m]
CC50 at 24 h [1, 4]: > 5 µM | IC50 [2, 3]: 20.6 µM

CCN(CC)C1CC(OC2CC(O)(C(=O)CO)Cc3c(O)c4c(c(O)c32)C(=O)c2c(OC)cccc2C4=O)OC(C)C1O (stereo not shown) [Compound 1n]
CC50 ([1]; 24 h, read-out: CC50): 0.512 µM | IC50 [2, 3]: 29.4 µM

COc1cccc2c1C(=O)c1c(O)c3c(c(O)c1C2=O)CC(O)(C(C)=O)CC3OC1CC(N(C)C)C(O)C(C)O1 (stereo not shown) [Compound 1o]
CC50 at 24 h [1]: 0.256 µM | IC50 [2, 3]: 43.7 µM

O=C1CC(c2ccc(O)c(-c3c(O)cc4c(c3O)C(=O)CC(c3ccc(O)cc3)O4)c2)Oc2cc(O)cc(O)c21 (stereo not shown) [Compound 2c]
CC50 at 24 h [1, 4]: > 5 µM | IC50 [2, 3]: > 100 µM

NC(CS)C(=O)NCCNc1ccc(NCCNC(=O)C(N)CS)c2c1C(=O)c1c(O)ccc(O)c1C2=O (stereo not shown) [Compound 2f]
CC50 at 24 h [1, 4]: 3.48 µM | IC50 [2, 3]: 6.4 µM

CN(C)CCCCNc1ccc(NCCCCN(C)C)c2c1C(=O)c1c(O)ccc(O)c1C2=O [Compound 2j]
CC50 at 24 h [1, 4]: > 5 µM | IC50 ([2]; read-out: IC50, inhibition of IN-GCN2 interaction): 11.4 µM

Clc1ccc2nc3ccccc3cc2c1 [Compound 2n]
CC50 at 24 h [1, 4]: > 5 µM | IC50 [2, 3]: > 100 µM

COc1cc2c(cc1OC)c1c(OC)c(OC)cc3c1c1c2sc(=S)n1CC3 [Compound 3a]
CC50 at 24 h [1, 4]: > 5 µM | IC50 [2, 3]: 24 µM

COc1cc2c(c(OC)c1OC)CC1c3c(cc4c(c3-2)OCO4)CCN1C (stereo not shown) [Compound 3c]
CC50 at 24 h [1]: > 5 µM | IC50 [2, 3]: 54 µM | fold decrease in activity compared to NSC785155 ([2]; IC50 ratio): 10 fold

COc1cc2c(cc1OC)-c1c3c(cc4c1C(C2)N(C)CC4)OCO3 (stereo not shown) [Compound 3g]
viral replication, maximum, relative to DMSO control (HIV-1Laï): up to 150% | IC50 [2, 3]: 92 µM

COc1ccc2c(c1)CC1c3c(cc4c(c3-2)OCO4)CCN1C (stereo not shown) [Compound 3h]
CC50 ([1]; 24 h, read-out: CC50): > 5 µM | IC50 [2, 3]: > 100 µM

COc1ccc2c(c1OC)-c1c3c(cc4c1C(C2)N(C)CC4)OCO3 (stereo not shown) [Compound 3j]
CC50 at 24 h [1]: > 5 µM | IC50 [2, 3]: > 100 µM

COc1cc2c(cc1OC)-c1c(OC)c(OC)cc3c1C(C2)N(C)CC3 (stereo not shown) [Compound 3k]
CC50 ([1]; 24 h, read-out: CC50): > 5 µM | IC50 [2, 3]: > 100 µM | effect on IN-GCN2 interaction in dose-response, in words ([2]; dose-response assessment): inactive | IN-GCN2 interaction (%) ([2]; screen): 124.35%

COc1cc2c3c(c1O)C1(C=CC(=O)C=C1)CC3N(C)CC2 (stereo not shown) [Compound 3l]
CC50 at 24 h [1, 4]: > 5 µM | IC50 [2, 3]: > 100 µM

COc1cc2ccc3c(c2cc1OC)N(C)C(OC)c1cc2c(cc1-3)OCO2 (stereo not shown) [Compound 3m]
CC50 ([1]; 24 h, read-out: CC50): > 5 µM | IC50 [2, 3]: > 100 µM

C=C1C(=O)C23C(O)C1CCC2C12CCCC(C)(COC(C)=O)C1C(O)C3(O)OC2 (stereo not shown) [NSC642099]
IN-GCN2 interaction (%) ([2]; screen): 95.31%

COc1ccc2c3c([nH]c2c1)[C@H](C=C(C)C)N1C(=O)[C@@H]2CCCN2C(=O)[C@@H]1C3 [NSC719655]
IN-GCN2 interaction (%) ([2]; screen): 66.56%

COc1c(OC)c2c3c(nccc3c1OC)C(=O)c1cc(O)ccc1-2 [NSC785143]
IN-GCN2 interaction (%) ([2]; screen): 30.28%

COc1c(OC)c2c3c(nccc3c1OC)-c1cc(=O)c(OC)ccc1-2 [NSC785144]
IN-GCN2 interaction (%) ([2]; screen): 14.73%

COc1cc2c3c(c1OC)-c1ccccc1C[C@H]3N(C)CC2 [NSC785145]
IN-GCN2 interaction (%) ([2]; screen): 66.76%

COc1ccc2c(c1OC)-c1c(OC)c(OC)cc3c1[C@H](C2)N(C)CC3 [NSC785146]
IN-GCN2 interaction (%) ([2]; screen): 58.90%

COc1c(O)ccc2c1-c1c3c(cc4c1[C@H](C2)N(C)CC4)OCO3 [NSC785147]
IN-GCN2 interaction (%) ([2]; screen, listed as 785147): 67.05%

COc1c(O)ccc2c1-c1c3c(cc4c1[C@H](C2)NCC4)OCO3 [NSC785148]
IN-GCN2 interaction (%) ([2]; screen): 69.85%

COc1c(OC)c2c3c(nccc3c1OC)C(=O)c1ccccc1-2 [NSC785149]
IN-GCN2 interaction (%) ([2]; screen): 57.46%

COc1c(OC)c2c3c(ncc(OC)c3c1OC)C(=O)c1ccccc1-2 [NSC785150]
IN-GCN2 interaction (%) ([2]; screen): 58.33%

COc1c(OC)c(OC)c2c3c(cc4ccccc42)NC(=O)C(=O)c13 [NSC785151]
IN-GCN2 interaction (%) ([2]; screen): 48.18%

COc1ccc2c(c1O)-c1cccc3c1[C@@H](C2)N(C)CC3 [NSC785152]
IN-GCN2 interaction (%) ([2]; screen): 66.28%

COc1ccc2c(c1OC)-c1cccc3c1[C@@H](C2)N(C)CC3 [NSC785153]
IN-GCN2 interaction (%) ([2]; screen): 61.13%

c1ccc2c(c1)cc1c3c(cc4c(c32)OCO4)CCN1 [NSC785156]
IN-GCN2 interaction (%) ([2]; screen): 39.07%

c1cc2c(c3c1C[C@@H]1NCCc4cc5c(c-3c41)OCO5)OCO2 [NSC785157]
IN-GCN2 interaction (%) ([2]; screen): 72.19%

COc1cc2c3c(c1O)-c1ccccc1C[C@@H]3N(C)CC2 [NSC785159]
effect on IN-GCN2 interaction in the screen, in words ([2]; screen, 100 µM, inactive = within 10% of the DMSO control): inactive | IN-GCN2 interaction (%) ([2]; screen, listed as 785159): 94.21%

COc1cc2c3c(c1OC)-c1cc4c(cc1C[C@@H]3N(C)CC2)OCO4 [NSC785161]
IN-GCN2 interaction (%) ([2]; screen): 55.76%

COc1ccc2c(c1OC)-c1c3c(cc4c1[C@H](C2)N(C)CC4)OCO3 [NSC785162]
IN-GCN2 interaction (%) ([2]; screen): 46.45%

COc1cc2c(c(O)c1OC)C[C@H]1c3c(c(OC)c4c(c3-2)OCO4)CCN1C [NSC785163]
IN-GCN2 interaction (%) ([2]; screen): 34.56%

CN1CCc2cc3c(c4c2[C@H]1Cc1ccccc1-4)OCO3 [NSC785164]
IN-GCN2 interaction (%) ([2]; screen): 64.36%

COc1cc2c3c(c1O)C1(C=CC(=O)C=C1)C[C@@H]3N(C)CC2 [NSC785166]
IN-GCN2 interaction (%) ([2]; screen): 94.62%

COc1cc2c3c(c1O)-c1cc(O)ccc1C[C@H]3N(C)CC2 [NSC785167]
IN-GCN2 interaction (%) ([2]; screen): 75.29%

CCOc1ccc2c(c1)-c1c(O)c(OC)cc3c1[C@H](C2)N(C)CC3 [NSC785169]
IN-GCN2 interaction (%) ([2]; screen): 40.02%

COc1cc2c3c(c1O)-c1ccccc1C[C@@H]3N(C)CC2 [NSC785170]
IN-GCN2 interaction (%) ([2]; screen, listed as 785170): 99.49%

COc1cc2c(cc1OC)[C@@H](Cc1ccc(O)cc1)N(C)CC2 [NSC785172]
IN-GCN2 interaction (%) ([2]; screen): 91.61%

COc1cc2c3c(c1O)Oc1ccc(cc1)C[C@@H]1c4c(cc(OC)c(OC)c4Oc4ccc(cc4)C[C@@H]3N(C)CC2)CCN1C [NSC785173]
IN-GCN2 interaction (%) ([2]; screen): 45.72%

COc1cc2c3c(c1OC)Oc1ccc(cc1)C[C@H]1c4c(cc(OC)c(OC)c4Oc4ccc(cc4)C[C@H]3N(C)CC2)CCN1C [NSC785174]
IN-GCN2 interaction (%) ([2]; screen): 57.96%

COC1=C[C@@H]2[C@@H]3Cc4ccc(OC)c(O)c4[C@]2(CCN3C)CC1=O [NSC785175]
IN-GCN2 interaction (%) ([2]; screen): 87.66%

COc1cc2c3c(c1O)-c1ccccc1CC3N(C)CC2 (stereo not shown) [NSC785177]
IN-GCN2 interaction (%) ([2]; screen): 73.43%

COc1cc2c(cc1O)C[C@H]1c3c(c(OC)c4c(c3-2)OCO4)CCN1C [NSC785179]
IN-GCN2 interaction (%) ([2]; screen): 39.12%

CC[C@]12CCCN3CC[C@]4(C(=C(C(=O)OC)C1)Nc1ccccc14)[C@@H]32 [NSC785180]
IN-GCN2 interaction (%) ([2]; screen): 67.39%

COc1c(O)ccc2c1-c1c3c(cc4c1[C@H](C2)N(C)CC4)OCO3 [NSC785181]
IN-GCN2 interaction (%) ([2]; screen, listed as 785181): 54.07%

COc1c(O)ccc2c1-c1c3c(cc4c1[C@H](C2)N(C)CC4)OCO3 [NSC785182]
IN-GCN2 interaction (%) ([2]; screen, listed as 785182): 74.81%

COc1cc2c(cc1O)[C@@H](Cc1ccc(Oc3cc(C[C@H]4c5cc(O)c(OC)cc5CCN4C)ccc3OC)cc1)N(C)CC2 [NSC785183]
IN-GCN2 interaction (%) ([2]; screen): 47.22%

COc1cc2c(cc1O)[C@@H](Cc1ccc(Oc3cc(C[C@H]4c5cc(O)c(OC)cc5CCN4C)ccc3O)cc1)N(C)CC2 [NSC785184]
IN-GCN2 interaction (%) ([2]; screen): 46.86%

CCOc1cc2c(cc1OC)CCN[C@H]2Cc1ccc(O)cc1 [NSC785185]
IN-GCN2 interaction (%) ([2]; screen): 75.32%

COc1cc2c3c(c1O)-c1cc(O)ccc1CC3N(C)CC2 (stereo not shown) [NSC785186]
IN-GCN2 interaction (%) ([2]; screen): 59.88%

COc1ccc2c(c1OC)-c1c(OC)c(OC)cc3c1[C@H](C2)NCC3 [NSC785187]
IN-GCN2 interaction (%) ([2]; screen): 70.21%

COc1ccc2c(c1O)-c1c3c(cc4c1[C@H](C2)N(C)CC4)OCO3 [NSC785188]
IN-GCN2 interaction (%) ([2]; screen): 77.54%

COc1cc2c(cc1O)C[C@H]1c3c(cc(OC)c(OC)c3-2)CCN1C [NSC785189]
IN-GCN2 interaction (%) ([2]; screen): 31.39%
